According to patent US20240336653A1, “PEPTIDE COMPOUND TARGETING ELASTIN-DERIVED PEPTIDES AND USE THEREOF” (Shenzhen Turier Biotech Co., Ltd., priority 2020, published 2024):
*1 amine or outer side, *2 acyl side, *3 side chain or, on linkers, in order; H or OH if unused. Primed or numbered codes have the meaning given here. Where no end group is shown, it is not given here. [ ]: non-standard residue; d: D form. The star is where a group is joined. C20 diacid = O=C(O)CCCCCCCCCCCCCCCCCCC(=O)*; γGlu = O=C(O)[C@H](CCC(=O)[*:2])N[*:1]; Iva = CC[C@](C)(N)C(=O)O; PEG2′ = not defined here

Columns and labels:
[1] = system: CCl4 induced hepatic fibrosis; assay: Carbon tetrachloride (CCl4) induced hepatic fibrosis model in mice; type: in vivo, C57BL/6J mice; conditions: 100.0 μg/kg intraperitoneal, 3 weeks of administration; for aggregation of inflammatory cells in the liver (HE staining) / hepatic fibrosis of mice: FIG. 2; for expression of Collagen I in the liver (immunohistochemistry): FIG. 3; for collagen deposition in the liver (Sirius red staining): FIG. 4
Experimental: Molding method: 72 male C57BL/6J mice, male, 18-22 g in weight and 8 weeks old, provided by Laboratory Animal Center, Sun Yat-sen University, randomly divided into 12 groups: 1) control group (Oil)+saline, intraperitoneal injection, n=6; 2) model control group (CCl4)+saline, intraperitoneal injection, n=6; administration of CCl4 to mice once every three days for 6 weeks; 3) model administration group (CCl4)+100.0 μg/kg series of compounds (group 10), intraperitoneal injection, n=6/group. The mice in the control group are injected with corn oil at the same volume and frequency according to the administration volume of 20% CCl4 at the weight of 5.0 μL/g. Administration frequency: administration of CCl4 to mice once every three days for 6 weeks. After 3 weeks of administration of CCl4 to mice in the model administration group, peptide compounds 1, 5, 7, 11, 12, 13, 17, 18, 21 and 22 are administered for 3 weeks from the 4th week. CCl4 and Oil are purchased from Shanghai Aladdin Biochemical Technology Co., Ltd.
In the CCl4 induced hepatic fibrosis model, the manifestations are: inflammatory cell infiltration around the central vein area, hydropic degeneration of hepatic cells, and increased accumulation of collagen fibers in the portal area and the hepatic interlobular septum. After three weeks of administration, the mice are treated and sampled. Blood is taken from the retrobulbar vein for detection of serological indicators, and liver tissue is taken for pathological analysis.
(§1) Hematoxylin-eosin (H&E) staining: paraffin embedded tissue sections are taken and baked at 60° C. for 1 h. Dewaxing and hydration: xylene for 20 minutes→xylene for 20 minutes→absolute alcohol for 15 minutes→absolute alcohol for 15 minutes→95% alcohol for 10 minutes→90% alcohol for 5 minutes→80% alcohol for 5 minutes. Staining: hematoxylin for 7 minutes→rinsing with tap water→differentiation with 1% hydrochloric acid alcohol for 1 s→rinsing with tap water→eosin staining for 15 s-20 s→rinsing with tap water. Dehydration and transparency: 75% alcohol for 1 s→85% alcohol for 1 s→95% alcohol for 1 s→100% alcohol for 1 s→xylene for Is→xylene for 1 s. The sections are aired for 30 minutes and sealed with gum.
Sirius red staining: drying and dewaxing; standing for 5.0 minutes in double distilled water; Sirius red staining for 60-80 minutes in a dark room; washing for 5 s with 0.5% glacial acetic acid; dehydration and transparency, sealing and taking photos.
Immunohistochemistry: drying sections, dewaxing, and then soaking in double distilled water for 5 minutes. Antigen retrieval: putting the shelf where pathological sections are placed into a beaker containing citric acid buffer (PH=6.0), and keeping it under high temperature and pressure for 15 minutes; taking out the beaker and letting it stand at room temperature until the temperature drops to the room temperature, then taking out the sections and putting them into 3.0% hydrogen peroxide for 10 minutes to block the endogenous peroxidase activity, and then washing them with PBS for three times, 5 minutes each time; sealing the tissues with 1.0% BSA for 1 h; removing 1.0% BSA, adding Collagen I antibody on the tissue according to the proportion recommended in the Description, and staying overnight at 4° C.; taking out the pathological sections next day, adding the second antibody with horseradish peroxidase after the room temperature is restored, incubating it at 37° C. for 60 minutes, and then use DAB (diaminobenzidine) ([…], USA) to develop color; and re-staining with hematoxylin staining solution, washing with tap water for 5 minutes, differentiating with 1% hydrochloric acid alcohol, then washing with tap water for 5 minutes again, dehydrating, airing, sealing, and taking photos (H&E staining solution and Sirius red staining solution are purchased from Sangon Biotech (Shanghai) Co., Ltd., and Collagen I antibody is purchased from CST Corporation).

[2] = system: LX2 cells; assay: Activity evaluation in LX2 cell model (α-SMA protein expression); type: cell-based, human; conditions: 1.0 μM and 10.0 μM, 48 hours incubation, GAPDH internal reference, FIG. 1
Description: In LX2 cell model (which can be directly used as the evaluation model of hepatic fibrosis cells in vitro, because LX2 cells are human liver activated stellate cells. The LX2 cells are purchased from China Center for Type Culture Collection of the Chinese Academy of Sciences, Shanghai, China), the anti-fibrosis activities of peptide compounds 1-25 are preliminarily screened, and the expression of the marker α-SMA protein of myofibroblast activation is detected. The peptide compounds 1-25 is subjected to cell incubation for 48 hours by using two concentrations (1.0 μM and 10.0 μM). The control group is given the same volume of Dulbecco's modified Eagle medium (DMEM) (purchased from Gibco in the United States), and GAPDH (purchased from TransGen Biotech) as the internal reference, α-actin (α-SMA) is a symbolic feature that distinguishes myoblast cells from myofibroblasts.

[3] = system: MMP9; assay: ELISA of MMP9 in serum of mice of the bleomycin model; type: in vivo, C57BL/6J mice; conditions: BLM mice, 150 μg/kg daily intraperitoneal, 14 days, FIG. 6-A
Experimental: (§2) Molding method: 78 male C57BL/6J mice, 16-18 g in weight and 6-8 weeks old, provided by Laboratory Animal Center, Sun Yat-sen University, randomly divided into 13 groups: 1) normal control group (Normal), n=6; 2) sham-operated saline control group (Saline), n=6; 3) bleomycin model group (BLM), n=6; and 4) model treatment group: administration of 150 μg/kg series compounds to mice, 10 groups in total, n=6/group. On the 7th day after the operation of bleomycin induced pulmonary fibrosis in mice, mice in the model treatment group are treated with drugs (administration frequency: daily administration/150 μg/kg, intraperitoneal injection). Samples are taken 14 days after administration, and pathological observations are recorded.
(§3) The bleomycin (purchased from TCI Shanghai)) induced pulmonary fibrosis model manifests the following pathological features: bronchiectasis, hydropic degeneration of bronchial epithelial cells, obvious edema and widening of alveolar interstitium, and deposition of a large number of fibroblasts and collagen tissue. The alveolar structure almost completely disappears, filled with fibrous connective tissue, and accompanied by inflammatory cell infiltration. After 14 days of administration, the mice in the model treatment group are treated and sampled. Blood is taken from the retrobulbar vein for detection of serological indicators, and […] is taken for pathological analysis.
(§4) The occurrence and development of fibrotic diseases are related to TGF-β and MMP-9 induced EMT process. Matrix metalloproteinases (MMPs) are matrix degrading proteases that degrade all components of extracellular matrix. They participate in the pathophysiological process of pulmonary fibrosis, play an important role in the abnormal remodeling of extracellular matrix and destruction of basement membrane, and promote the recruitment of inflammatory cells and fibroblasts. The increased expression of MMP-9 in pulmonary fibrosis animal models and patients, higher than the normal MMP-9 level, may destroy normal tissue structure and increase the migration of inflammatory cells to the disease site. In order to further explore the inhibitory mechanism of polypeptide drugs on bleomycin induced pulmonary fibrosis, we detect the expression of TGFβ, MMP9 cell factors in serum of mice in each group by ELISA. […] We speculate that its mechanism should be related to TGF-β.

[4] = system: TGF-β; assay: ELISA of TGFβ in serum of mice of the bleomycin model; type: in vivo, C57BL/6J mice; conditions: BLM mice, 150 μg/kg daily intraperitoneal, 14 days, FIG. 6-B
Experimental: as §2, §3, §4

[5] = system: bleomycin induced pulmonary fibrosis; assay: Bleomycin (BLM) induced pulmonary fibrosis model in mice; type: in vivo, C57BL/6J mice; conditions: 150 μg/kg daily intraperitoneal, 14 days, FIG. 5; for degree of pulmonary fibrosis (H&E staining and Masson staining): compared with bleomycin control group; for fibronectin in pulmonary parenchyma (α-SMA and Collagen1 immunohistochemistry): compared with bleomycin group
Experimental: as §2, §3
as §1, with “H&E” for “Hematoxylin-eosin (H&E)”, “1 s→xylene” for “Is→xylene”
Masson staining: drying and dewaxing; mordanting; adding celestine blue staining solution for 2-3 min, and washing with water; adding Mayer hematoxylin staining solution and washing with water; differentiating with acid alcohol differentiation liquid for several seconds, and washing with tap water; adding ponceau magenta staining solution and washing with distilled water; treating with phosphomolybdic acid solution; adding aniline blue staining solution for 5 min; treating with weak acid solution for 2 min; dehydration and transparency, airing and sealing with gum.
Immunohistochemistry: drying sections, dewaxing, and then soaking in double distilled water for 5 minutes. […]

(PEG2-PEG2-γGlu-CO(CH2)18CH3)-Val-Iva-Gly-Ser-Pro-Ser-Ala-Gln-Glu-Glu-Ala-Ser-Pro-Ala-NH2 (V[Iva]GSPSAQEEASPA-NH2; not fully specified (N-terminus); printed as (PEG2-PEG2-γGlu-CO(CH2)18CH3)-Val-Iva-Gly-Ser-Pro-Ser-Ala-Gln-Glu-Glu-Ala-Ser-Pro-Ala-NH2) [Compound 13]
aggregation of inflammatory cells in the liver (HE staining) [1]: significantly improved | hepatic fibrosis of mice [1]: significantly improved | expression of Collagen I in the liver (immunohistochemistry) [1]: significant therapeutic improvement | collagen deposition in the liver (Sirius red staining) [1]: significant therapeutic improvement | inhibiting and improving the activity of α-SMA (expression of α-SMA protein) [2]: better effects on inhibiting and improving the activity of α-SMA | concentration of MMP9 in serum of mice [3]: significantly reduce | concentration of TGF-β in serum of mice [4]: significantly reduce | degree of pulmonary fibrosis (H&E staining and Masson staining) [5]: significantly reduced | fibronectin in pulmonary parenchyma (α-SMA and Collagen1 immunohistochemistry) [5]: significantly less than that in bleomycin group

Compound 22 (V[Iva]GSPSAQEEASPA; not fully specified (N-terminus, C-terminus))
aggregation of inflammatory cells in the liver (HE staining) [1]: significantly improved | hepatic fibrosis of mice [1]: significantly improved | expression of Collagen I in the liver (immunohistochemistry) [1]: significant therapeutic improvement | collagen deposition in the liver (Sirius red staining) [1]: significant therapeutic improvement | inhibiting and improving the activity of α-SMA (expression of α-SMA protein) [2]: better effects on inhibiting and improving the activity of α-SMA | concentration of MMP9 in serum of mice [3]: significantly reduce | concentration of TGF-β in serum of mice [4]: significantly reduce | degree of pulmonary fibrosis (H&E staining and Masson staining) [5]: significantly reduced | fibronectin in pulmonary parenchyma (α-SMA and Collagen1 immunohistochemistry) [5]: significantly less than that in bleomycin group

(PEG2-PEG2-γGlu-CO(CH2)18CO2H)-Val-Iva-Gly-Ser-Pro-Ser-Ala-Gln-Glu-Glu-Ala-Ser-Pro-Ala-NH2 ({C20 diacid-γGlu-PEG2′-PEG2′}-V[Iva]GSPSAQEEASPA-NH2) [Compound 7]
aggregation of inflammatory cells in the liver (HE staining) [1]: significantly improved | hepatic fibrosis of mice [1]: significantly improved | expression of Collagen I in the liver (immunohistochemistry) [1]: significant therapeutic improvement | collagen deposition in the liver (Sirius red staining) [1]: significant therapeutic improvement | inhibiting and improving the activity of α-SMA (expression of α-SMA protein) [2]: better effects on inhibiting and improving the activity of α-SMA | concentration of MMP9 in serum of mice [3]: significantly reduce | concentration of TGF-β in serum of mice [4]: significantly reduce | degree of pulmonary fibrosis (H&E staining and Masson staining) [5]: significantly reduced | fibronectin in pulmonary parenchyma (α-SMA and Collagen1 immunohistochemistry) [5]: significantly less than that in bleomycin group

(PEG2-PEG2-γGlu-CO(CH2)18CO2H)-Val-Iva-Gly-Ser-Pro-Ser-Ala-Gln-Asp-Glu-Ala-Ser-Pro-Ala-NH2 ({C20 diacid-γGlu-PEG2′-PEG2′}-V[Iva]GSPSAQDEASPA-NH2) [Compound 5]
aggregation of inflammatory cells in the liver (HE staining) [1]: significantly improved | hepatic fibrosis of mice [1]: significantly improved | expression of Collagen I in the liver (immunohistochemistry) [1]: significant therapeutic improvement | collagen deposition in the liver (Sirius red staining) [1]: significant therapeutic improvement | inhibiting and improving the activity of α-SMA (expression of α-SMA protein) [2]: better effects on inhibiting and improving the activity of α-SMA | concentration of MMP9 in serum of mice [3]: significantly reduce | concentration of TGF-β in serum of mice [4]: significantly reduce | degree of pulmonary fibrosis (H&E staining and Masson staining) [5]: significantly reduced | fibronectin in pulmonary parenchyma (α-SMA and Collagen1 immunohistochemistry) [5]: significantly less than that in bleomycin group
